# Source: ChEMBL document CHEMBL1136616, “Carbonic anhydrase inhibitors: SAR and X-ray crystallographic study for the interaction of sugar sulfamates/sulfamides with isozymes I, II and IV” (Bioorg Med Chem Lett, 2003)
# What was measured:
# Carbonic anhydrase 4 = target: T1, Carbonic anhydrase 4 (Bos taurus, UniProt Q95323)
# T1 sequence (Q95323 whole entry): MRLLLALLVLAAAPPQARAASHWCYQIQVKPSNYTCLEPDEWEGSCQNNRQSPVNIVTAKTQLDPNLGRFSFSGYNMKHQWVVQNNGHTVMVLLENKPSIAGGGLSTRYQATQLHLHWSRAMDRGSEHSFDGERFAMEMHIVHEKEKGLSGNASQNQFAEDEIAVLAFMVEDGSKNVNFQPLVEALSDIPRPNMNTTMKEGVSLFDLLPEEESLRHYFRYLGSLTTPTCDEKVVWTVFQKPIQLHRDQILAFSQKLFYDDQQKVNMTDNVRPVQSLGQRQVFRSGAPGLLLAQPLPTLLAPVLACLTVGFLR
# Description: Inhibitory activity against carbonic anhydrase isolated from bovine lung microsome (bCA IV)
# Carbonic anhydrase 1 = Carbonic anhydrase 1 (Homo sapiens, UniProt P00915)
# Sequence of Carbonic anhydrase 1 (P00915 whole entry): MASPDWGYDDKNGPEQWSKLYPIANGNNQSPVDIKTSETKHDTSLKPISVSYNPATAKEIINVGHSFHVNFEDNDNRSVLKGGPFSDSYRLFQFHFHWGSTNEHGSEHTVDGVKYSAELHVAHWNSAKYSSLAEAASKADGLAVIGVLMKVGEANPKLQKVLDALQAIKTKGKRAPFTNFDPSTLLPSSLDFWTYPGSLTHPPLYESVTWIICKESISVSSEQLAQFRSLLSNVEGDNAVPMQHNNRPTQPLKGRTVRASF
# Description: Inhibitory activity against human cloned carbonic anhydrase I (hCA I)
# Carbonic anhydrase 2 = Carbonic anhydrase 2 (Homo sapiens, UniProt P00918)
# Description: Inhibitory activity against human cloned carbonic anhydrase II (hCA II)
SMILES,Ki (Carbonic anhydrase 4) [µM],Ki (Carbonic anhydrase 1) [µM],Ki (Carbonic anhydrase 2) [µM]
CC1(C)O[C@@H]2[C@@H](CO[C@@]3(C(=O)NS(N)(=O)=O)OC(C)(C)O[C@@H]23)O1,> 100,> 100,> 100
CC1(C)OC[C@@H]2O[C@@]3(C(=O)NNS(N)(=O)=O)OC(C)(C)O[C@H]3[C@@H]2O1,33,420,21
CC1(C)O[C@@H]2O[C@@H](C(=O)NS(N)(=O)=O)[C@H]3OC(C)(C)O[C@H]3[C@@H]2O1,46,> 100,25
CC1(C)O[C@H]2[C@@H](O1)[C@@H](C(=O)NNS(N)(=O)=O)O[C@@H]1OC(C)(C)O[C@@H]12,30,> 100,15
CC1(C)OC[C@@H]2O[C@@]3(C(=O)NS(N)(=O)=O)OC(C)(C)O[C@H]3[C@@H]2O1,0.425,0.75,0.068
CC1(C)O[C@@H]2[C@@H](CO[C@@]3(C(=O)NNS(N)(=O)=O)OC(C)(C)O[C@@H]23)O1,> 100,> 100,> 100
CC1(C)OC[C@@H]2O[C@@]3(COC(=O)NS(N)(=O)=O)OC(C)(C)O[C@H]3[C@@H]2O1,0.13,1.2,0.071
CC1(C)O[C@@H]2O[C@@H](COS(N)(=O)=O)[C@H]3OC(C)(C)O[C@H]3[C@@H]2O1,27,400,13
CC1(C)O[C@@H]2[C@@H](CO[C@@]3(COC(=O)NS(N)(=O)=O)OC(C)(C)O[C@@H]23)O1,0.045,0.42,0.024
NS(=O)(=O)O [SULFAMATE],,21,
